Key:
[1] = target: Serine/threonine-protein kinase pim-1 (Homo sapiens) (UniProt P11309); test: Inhibition of human PIM1 (2 to 313 residues) assessed as enzyme activity at 1 uM using 33P ATP by radioactive filter binding assay; parameters: scale not given: the % may be the effect or the level left
[2] = target: Mitogen-activated protein kinase 11 (Homo sapiens) (UniProt Q15759); test: Inhibition of SAPK2b (unknown origin) assessed as enzyme activity at 1 uM using 33P ATP by radioactive filter binding assay; parameters: scale not given: the % may be the effect or the level left
[3] = target: T1, Serine/threonine-protein kinase TBK1 (Homo sapiens) (UniProt Q9UHD2); test: Inhibition of human TBK1 (1 to 729 residues) assessed as enzyme activity at 1 uM using 33P ATP by radioactive filter binding assay; parameters: scale not given: the % may be the effect or the level left
T1 sequence (whole entry): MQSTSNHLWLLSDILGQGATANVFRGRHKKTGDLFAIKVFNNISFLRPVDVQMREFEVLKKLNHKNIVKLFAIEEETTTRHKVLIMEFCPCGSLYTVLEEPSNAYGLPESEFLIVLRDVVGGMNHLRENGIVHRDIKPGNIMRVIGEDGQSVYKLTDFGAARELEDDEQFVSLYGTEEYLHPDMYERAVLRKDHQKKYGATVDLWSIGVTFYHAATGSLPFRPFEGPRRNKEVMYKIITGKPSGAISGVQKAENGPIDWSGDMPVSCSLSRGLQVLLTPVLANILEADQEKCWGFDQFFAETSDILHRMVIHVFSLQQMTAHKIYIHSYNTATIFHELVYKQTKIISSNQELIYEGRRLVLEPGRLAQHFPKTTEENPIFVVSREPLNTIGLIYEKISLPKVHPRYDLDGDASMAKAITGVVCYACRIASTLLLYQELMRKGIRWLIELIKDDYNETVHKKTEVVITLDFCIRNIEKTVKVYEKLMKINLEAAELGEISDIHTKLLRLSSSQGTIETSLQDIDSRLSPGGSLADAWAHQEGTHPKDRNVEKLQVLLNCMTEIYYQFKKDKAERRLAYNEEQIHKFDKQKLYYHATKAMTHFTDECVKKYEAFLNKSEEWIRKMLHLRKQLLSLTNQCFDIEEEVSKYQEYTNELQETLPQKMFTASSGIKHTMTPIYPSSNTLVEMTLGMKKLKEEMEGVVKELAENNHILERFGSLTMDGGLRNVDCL

[4] = target: T2, 3-phosphoinositide-dependent protein kinase 1 (Homo sapiens, UniProt O15530); test: Inhibition of PDK1 in human PC3 cells assessed as reduction in AKT Thr308 phosphorylation after 45 mins; format: cell-based, PC-3
T2 sequence (O15530 whole entry): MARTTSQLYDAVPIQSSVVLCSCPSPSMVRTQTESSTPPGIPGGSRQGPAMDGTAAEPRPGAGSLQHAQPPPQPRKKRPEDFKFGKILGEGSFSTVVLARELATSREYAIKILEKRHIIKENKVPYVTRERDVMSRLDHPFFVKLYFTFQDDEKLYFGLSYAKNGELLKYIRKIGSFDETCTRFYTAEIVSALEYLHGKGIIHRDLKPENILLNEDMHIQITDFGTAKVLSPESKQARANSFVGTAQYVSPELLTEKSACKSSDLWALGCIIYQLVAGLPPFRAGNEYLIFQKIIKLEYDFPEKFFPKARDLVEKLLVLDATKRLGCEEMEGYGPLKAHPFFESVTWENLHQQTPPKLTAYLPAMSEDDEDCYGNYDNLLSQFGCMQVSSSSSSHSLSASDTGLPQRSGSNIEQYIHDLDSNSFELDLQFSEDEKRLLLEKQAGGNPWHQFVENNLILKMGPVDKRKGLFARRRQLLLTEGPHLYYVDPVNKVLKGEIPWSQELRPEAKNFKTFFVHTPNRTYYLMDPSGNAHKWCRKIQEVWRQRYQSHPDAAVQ

[5] = target: T3, Serine/threonine-protein kinase BRSK2 (Homo sapiens) (UniProt Q8IWQ3); test: Inhibition of human BRSK2 (2 to 674 residues) assessed as enzyme activity at 1 uM using 33P ATP by radioactive filter binding assay; parameters: scale not given: the % may be the effect or the level left
T3 sequence (whole entry): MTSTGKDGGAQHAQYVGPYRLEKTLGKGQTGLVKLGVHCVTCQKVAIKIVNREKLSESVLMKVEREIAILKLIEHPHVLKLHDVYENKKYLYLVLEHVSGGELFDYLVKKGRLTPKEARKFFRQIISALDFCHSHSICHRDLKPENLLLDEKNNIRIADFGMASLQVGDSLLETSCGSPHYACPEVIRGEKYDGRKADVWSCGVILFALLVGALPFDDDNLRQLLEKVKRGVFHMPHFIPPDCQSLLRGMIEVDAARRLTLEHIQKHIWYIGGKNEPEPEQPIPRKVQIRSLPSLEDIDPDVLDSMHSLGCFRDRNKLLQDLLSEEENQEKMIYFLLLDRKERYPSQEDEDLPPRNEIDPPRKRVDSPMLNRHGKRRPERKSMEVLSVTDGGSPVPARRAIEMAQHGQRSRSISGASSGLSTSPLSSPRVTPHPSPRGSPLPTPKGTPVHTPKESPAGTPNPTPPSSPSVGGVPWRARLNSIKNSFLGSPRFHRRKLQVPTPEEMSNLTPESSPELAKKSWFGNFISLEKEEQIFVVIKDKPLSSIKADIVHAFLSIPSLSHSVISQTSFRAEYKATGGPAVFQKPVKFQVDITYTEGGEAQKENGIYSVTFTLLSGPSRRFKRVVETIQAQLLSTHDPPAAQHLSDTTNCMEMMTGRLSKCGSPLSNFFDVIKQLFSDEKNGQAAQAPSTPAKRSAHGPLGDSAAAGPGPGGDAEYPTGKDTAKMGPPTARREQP

[6] = target: Dual specificity tyrosine-phosphorylation-regulated kinase 1A (Homo sapiens) (UniProt Q13627); test: Inhibition of human DYRK1A (1 to 502 residues) assessed as enzyme activity at 1 uM using 33P ATP by radioactive filter binding assay; parameters: scale not given: the % may be the effect or the level left
[7] = target: Glycogen synthase kinase-3 beta (Homo sapiens) (UniProt P49841); test: Inhibition of human GSK3beta (2 to 420 residues) assessed as enzyme activity at 1 uM using 33P ATP by radioactive filter binding assay; parameters: scale not given: the % may be the effect or the level left
[8] = target: Tyrosine-protein kinase SYK (Homo sapiens) (UniProt P43405); test: Inhibition of human SYK (1 to 635 residues) assessed as enzyme activity at 1 uM using 33P ATP by radioactive filter binding assay; parameters: scale not given: the % may be the effect or the level left

## CCc1cc(-c2c[nH]c3ncc(-c4cnn(C5CCNCC5)c4)cc23)nc(N)n1
[1]
  Activity: -85%
[2]
  Activity: -18%
[3]
  Activity: -65%
[4]
  IC50: 13 µM
[5]
  Activity: -65%
[6]
  Activity: -94%
[7]
  Activity: -94%

## CCCCc1cc(-c2c[nH]c3ncccc23)nc(N)n1
[1]
  Activity: -61%
[2]
  Activity: -5%
[8]
  Activity: -9%
[3]
  Activity: -37%
[4]
  IC50: > 10 µM
[5]
  Activity: -12%
[6]
  Activity: -90%
[7]
  Activity: -86%

## CCCCc1cc(-c2c[nH]c3ncc(-c4cnn(C5CCNCC5)c4)cc23)nc(N)n1
[1]
  Activity: -98%
[2]
  Activity: -21%
[8]
  Activity: -69%
[3]
  Activity: -93%
[4]
  IC50: 2.3 µM
[5]
  Activity: -65%
[6]
  Activity: -92%
[7]
  Activity: -94%

## Nc1nccc(-c2c[nH]c3ncccc23)n1 [MERIOLIN 1]
[1]
  Activity: -62%
[2]
  Activity: -4%
[8]
  Activity: 12%
[3]
  Activity: -17%
[4]
  IC50: > 10 µM
[5]
  Activity: -16%
[6]
  Activity: -95%
[7]
  Activity: -77%

Source: ChEMBL document CHEMBL3813616, “Discovery of novel 7-azaindoles as PDK1 inhibitors” (Bioorg Med Chem Lett, 2016)
